Test results from ChEMBL document CHEMBL4330132, “5-Keto-3-cyano-2,4-diaminothiophenes as selective maternal embryonic leucine zipper kinase inhibitors” (Bioorg Med Chem Lett, 2019).

Assays:
[1] = tested on: Receptor-type tyrosine-protein kinase FLT3 (Homo sapiens), P36888 [K663Q]; test: Binding affinity to human partial length FLT3 K663Q mutant (V592 to Y969 residues) expressed in bacterial expression system assessed as residual binding level at 1 uM by Kinomescan method relative to control
[2] = biological target: Receptor-interacting serine/threonine-protein kinase 4 (Homo sapiens) (UniProt P57078); test: Binding affinity to wild-type human partial length RIPK4 (M1 to V303 residues) expressed in mammalian expression system assessed as residual binding level at 1 uM by Kinomescan method relative to control
[3] = biological target: Tyrosine-protein kinase Yes (Homo sapiens) (UniProt P07947); test: Binding affinity to wild-type human partial length YES (T257 to L543 residues) expressed in bacterial expression system assessed as residual binding level at 1 uM by Kinomescan method relative to control
[4] = biological target: Calcium/calmodulin-dependent protein kinase type II subunit beta (Homo sapiens) (UniProt Q13554); test: Binding affinity to wild-type human partial length CAMK2B (M1 to Q380 residues) expressed in bacterial expression system assessed as residual binding level at 1 uM by Kinomescan method relative to control
[5] = biological target: Serine/threonine-protein kinase PAK 2 (Homo sapiens) (UniProt Q13177); test: Binding affinity to wild-type human partial length PAK2 (P151 to R525 residues) expressed in bacterial expression system assessed as residual binding level at 1 uM by Kinomescan method relative to control
[6] = biological target: MAP/microtubule affinity-regulating kinase 4 (Homo sapiens) (UniProt Q96L34); test: Binding affinity to wild-type human partial length MARK4 (K29 to G340 residues) expressed in bacterial expression system assessed as residual binding level at 1 uM by Kinomescan method relative to control
[7] = biological target: Serine/threonine-protein kinase PAK 4 (Homo sapiens) (UniProt O96013); test: Binding affinity to wild-type human partial length PAK4 (Q144 to R438 residues) expressed in bacterial expression system assessed as residual binding level at 1 uM by Kinomescan method relative to control
[8] = biological target: Fibroblast growth factor receptor 1 (Homo sapiens) (UniProt P11362); test: Binding affinity to wild-type human partial length FGFR1 (P357 to V669 residues) expressed in bacterial expression system assessed as residual binding level at 1 uM by Kinomescan method relative to control
[9] = biological target: Citron Rho-interacting kinase (Homo sapiens) (UniProt O14578); test: Binding affinity to wild-type human partial length CIT (M68 to E432 residues) expressed in bacterial expression system assessed as residual binding level at 1 uM by Kinomescan method relative to control
[10] = biological target: Ephrin type-A receptor 4 (Homo sapiens) (UniProt P54764); test: Binding affinity to wild-type human partial length EPHA4 (T601 to R897 residues) expressed in bacterial expression system assessed as residual binding level at 1 uM by Kinomescan method relative to control
[11] = tested on: Phosphatidylinositol 4,5-bisphosphate 3-kinase catalytic subunit alpha isoform (Homo sapiens), P42336 [Q546K]; test: Binding affinity to human partial length PIK3CA Q546K mutant (R108 to N1068 residues) expressed in mammalian expression system assessed as residual binding level at 1 uM by Kinomescan method relative to control
[12] = biological target: Serine/threonine-protein kinase PAK 1 (Homo sapiens) (UniProt Q13153); test: Binding affinity to wild-type human partial length PAK1 (S149 to H545 residues) expressed in bacterial expression system assessed as residual binding level at 1 uM by Kinomescan method relative to control
[13] = biological target: Myosin-IIIb (Homo sapiens) (UniProt Q8WXR4); test: Binding affinity to wild-type human partial length MYO3B (M1 to D357 residues) expressed in bacterial expression system assessed as residual binding level at 1 uM by Kinomescan method relative to control
[14] = biological target: Eukaryotic translation initiation factor 2-alpha kinase 1 (Homo sapiens) (UniProt Q9BQI3); test: Binding affinity to wild-type human partial length EIF2AK1 (Q147 to E603 residues) expressed in mammalian expression system assessed as residual binding level at 1 uM by Kinomescan method relative to control
[15] = biological target: Mitogen-activated protein kinase kinase kinase 7 (Homo sapiens) (UniProt O43318); test: Binding affinity to wild-type human partial length TAK1 (M1 to Q303 residues) expressed in mammalian expression system assessed as residual binding level at 1 uM by Kinomescan method relative to control
[16] = tested on: Mast/stem cell growth factor receptor Kit (Homo sapiens), P10721 [V559D,T670I]; test: Binding affinity to human partial length KIT V559D/T670I double mutant (Y545 to D952 residues) expressed in bacterial expression system assessed as residual binding level at 1 uM by Kinomescan method relative to control
[17] = biological target: cAMP-dependent protein kinase catalytic subunit PRKX (Homo sapiens) (UniProt P51817); test: Binding affinity to wild-type human partial length PRKX (M1 to F358 residues) expressed in bacterial expression system assessed as residual binding level at 1 uM by Kinomescan method relative to control
[18] = biological target: Casein kinase II subunit alpha (Homo sapiens) (UniProt P68400); test: Binding affinity to wild-type human full length CSNK2A1 (M1 to Q391 residues) expressed in mammalian expression system assessed as residual binding level at 1 uM by Kinomescan method relative to control
[19] = biological target: Phosphatidylinositol 4,5-bisphosphate 3-kinase catalytic subunit gamma isoform (Homo sapiens) (UniProt P48736); test: Binding affinity to wild-type human partial length PIK3CG (S144 to A1102 residues) expressed in mammalian expression system assessed as residual binding level at 1 uM by Kinomescan method relative to control
[20] = biological target: Serine/threonine-protein kinase N2 (Homo sapiens) (UniProt Q16513); test: Binding affinity to wild-type human partial length PKN2 (E634 to C984 residues) expressed in bacterial expression system assessed as residual binding level at 1 uM by Kinomescan method relative to control
[21] = biological target: Tyrosine-protein kinase ABL1 (Homo sapiens) (UniProt P00519); test: Binding affinity to wild-type human non-phosphorylated ABL1 (S229 to K512 residues) expressed in mammalian expression system assessed as residual binding level at 1 uM by Kinomescan method relative to control
[22] = biological target: Serine/threonine-protein kinase 25 (Homo sapiens) (UniProt O00506); test: Binding affinity to wild-type human partial length YSK1 (V14 to H295 residues) expressed in bacterial expression system assessed as residual binding level at 1 uM by Kinomescan method relative to control
[23] = biological target: Serine/threonine-protein kinase DCLK3 (Homo sapiens) (UniProt Q9C098); test: Binding affinity to wild-type human partial length DCAMKL3 (E140 to V628 residues) expressed in bacterial expression system assessed as residual binding level at 1 uM by Kinomescan method relative to control
[24] = biological target: Serine/threonine-protein kinase NIM1 (Homo sapiens) (UniProt Q8IY84); test: Binding affinity to wild-type human partial length NIM1 (Q44 to N355 residues) expressed in mammalian expression system assessed as residual binding level at 1 uM by Kinomescan method relative to control
Chain of Serine/threonine-protein kinase NIM1 (Homo sapiens) (Q8IY84 whole entry, the tested form may be a part): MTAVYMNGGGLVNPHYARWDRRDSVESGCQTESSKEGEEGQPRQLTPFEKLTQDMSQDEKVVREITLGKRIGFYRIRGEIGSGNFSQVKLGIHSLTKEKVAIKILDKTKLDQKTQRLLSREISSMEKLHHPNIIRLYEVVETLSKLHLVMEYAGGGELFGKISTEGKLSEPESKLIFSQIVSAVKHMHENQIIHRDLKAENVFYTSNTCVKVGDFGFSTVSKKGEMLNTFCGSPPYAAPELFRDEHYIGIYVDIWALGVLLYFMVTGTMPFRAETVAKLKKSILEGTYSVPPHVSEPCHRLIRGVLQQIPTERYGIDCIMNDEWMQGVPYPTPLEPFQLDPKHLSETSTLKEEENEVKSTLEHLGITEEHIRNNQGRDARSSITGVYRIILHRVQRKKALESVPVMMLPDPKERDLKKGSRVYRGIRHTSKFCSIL

Chain of Serine/threonine-protein kinase N2 (Homo sapiens) (Q16513 whole entry, looked up, the tested form may be a part): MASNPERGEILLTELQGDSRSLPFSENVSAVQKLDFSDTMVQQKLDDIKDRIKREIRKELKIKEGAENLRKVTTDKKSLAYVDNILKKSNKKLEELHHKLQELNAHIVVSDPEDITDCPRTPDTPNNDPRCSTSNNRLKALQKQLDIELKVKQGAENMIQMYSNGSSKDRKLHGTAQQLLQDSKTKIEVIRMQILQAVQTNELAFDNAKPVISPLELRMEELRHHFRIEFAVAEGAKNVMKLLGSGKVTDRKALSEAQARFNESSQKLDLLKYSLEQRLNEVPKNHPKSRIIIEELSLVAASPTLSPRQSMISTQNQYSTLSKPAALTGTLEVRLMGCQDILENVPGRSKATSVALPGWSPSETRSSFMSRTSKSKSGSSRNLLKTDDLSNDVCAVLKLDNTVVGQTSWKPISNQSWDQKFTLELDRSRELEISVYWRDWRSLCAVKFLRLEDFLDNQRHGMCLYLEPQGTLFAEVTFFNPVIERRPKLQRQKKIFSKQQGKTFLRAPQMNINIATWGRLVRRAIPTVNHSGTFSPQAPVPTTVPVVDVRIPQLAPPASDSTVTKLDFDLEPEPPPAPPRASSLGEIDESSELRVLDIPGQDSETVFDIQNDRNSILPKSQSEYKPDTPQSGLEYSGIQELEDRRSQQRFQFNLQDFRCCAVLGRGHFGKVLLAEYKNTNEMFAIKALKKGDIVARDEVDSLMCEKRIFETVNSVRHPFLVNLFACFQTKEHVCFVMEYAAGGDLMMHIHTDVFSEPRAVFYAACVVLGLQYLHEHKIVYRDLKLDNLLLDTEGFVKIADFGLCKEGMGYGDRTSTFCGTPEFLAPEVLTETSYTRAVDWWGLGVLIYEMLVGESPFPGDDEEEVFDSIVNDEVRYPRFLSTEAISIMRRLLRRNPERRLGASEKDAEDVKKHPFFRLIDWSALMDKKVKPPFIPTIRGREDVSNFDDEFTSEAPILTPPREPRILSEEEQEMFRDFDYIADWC
Chain of Serine/threonine-protein kinase PAK 4 (Homo sapiens) (O96013 whole entry, looked up, the tested form may be a part): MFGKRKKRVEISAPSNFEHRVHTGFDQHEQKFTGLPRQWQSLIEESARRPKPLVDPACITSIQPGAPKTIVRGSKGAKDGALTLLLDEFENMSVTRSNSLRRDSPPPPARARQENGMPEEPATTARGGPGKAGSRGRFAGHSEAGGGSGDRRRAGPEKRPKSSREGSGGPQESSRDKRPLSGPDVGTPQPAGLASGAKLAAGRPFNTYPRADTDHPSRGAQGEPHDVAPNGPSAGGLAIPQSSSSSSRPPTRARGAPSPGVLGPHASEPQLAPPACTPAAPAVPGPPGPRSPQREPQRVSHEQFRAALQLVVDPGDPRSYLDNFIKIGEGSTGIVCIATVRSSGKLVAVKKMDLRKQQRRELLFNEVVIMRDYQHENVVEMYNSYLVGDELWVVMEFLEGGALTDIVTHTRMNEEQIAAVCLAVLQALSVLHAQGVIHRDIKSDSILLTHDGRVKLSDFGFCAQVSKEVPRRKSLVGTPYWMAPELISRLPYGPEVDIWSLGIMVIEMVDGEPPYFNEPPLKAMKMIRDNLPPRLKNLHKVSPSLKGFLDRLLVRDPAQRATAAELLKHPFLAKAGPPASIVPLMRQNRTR
Chain of Receptor-interacting serine/threonine-protein kinase 4 (Homo sapiens) (P57078 whole entry, the tested form may be a part): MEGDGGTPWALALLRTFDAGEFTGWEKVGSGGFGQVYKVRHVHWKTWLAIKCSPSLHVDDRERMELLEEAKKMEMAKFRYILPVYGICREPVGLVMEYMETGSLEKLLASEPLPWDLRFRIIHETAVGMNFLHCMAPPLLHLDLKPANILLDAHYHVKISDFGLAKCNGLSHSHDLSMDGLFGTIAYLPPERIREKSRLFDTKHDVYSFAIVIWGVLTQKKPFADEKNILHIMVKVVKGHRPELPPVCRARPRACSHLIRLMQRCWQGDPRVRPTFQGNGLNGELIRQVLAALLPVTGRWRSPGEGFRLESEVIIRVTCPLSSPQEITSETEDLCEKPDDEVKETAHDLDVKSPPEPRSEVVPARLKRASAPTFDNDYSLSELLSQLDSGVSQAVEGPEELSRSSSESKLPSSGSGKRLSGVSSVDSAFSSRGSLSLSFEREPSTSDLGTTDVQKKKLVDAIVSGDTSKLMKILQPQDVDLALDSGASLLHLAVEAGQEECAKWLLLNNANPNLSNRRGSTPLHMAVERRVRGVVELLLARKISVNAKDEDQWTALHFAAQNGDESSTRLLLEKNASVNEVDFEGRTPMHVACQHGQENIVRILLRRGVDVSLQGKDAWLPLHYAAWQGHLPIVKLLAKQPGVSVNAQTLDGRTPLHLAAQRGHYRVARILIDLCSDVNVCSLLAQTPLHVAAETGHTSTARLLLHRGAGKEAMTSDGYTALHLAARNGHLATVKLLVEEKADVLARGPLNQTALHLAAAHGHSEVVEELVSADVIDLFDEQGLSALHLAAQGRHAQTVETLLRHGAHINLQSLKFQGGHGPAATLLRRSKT
Chain of Calcium/calmodulin-dependent protein kinase type II subunit beta (Homo sapiens) (Q13554 whole entry, the tested form may be a part): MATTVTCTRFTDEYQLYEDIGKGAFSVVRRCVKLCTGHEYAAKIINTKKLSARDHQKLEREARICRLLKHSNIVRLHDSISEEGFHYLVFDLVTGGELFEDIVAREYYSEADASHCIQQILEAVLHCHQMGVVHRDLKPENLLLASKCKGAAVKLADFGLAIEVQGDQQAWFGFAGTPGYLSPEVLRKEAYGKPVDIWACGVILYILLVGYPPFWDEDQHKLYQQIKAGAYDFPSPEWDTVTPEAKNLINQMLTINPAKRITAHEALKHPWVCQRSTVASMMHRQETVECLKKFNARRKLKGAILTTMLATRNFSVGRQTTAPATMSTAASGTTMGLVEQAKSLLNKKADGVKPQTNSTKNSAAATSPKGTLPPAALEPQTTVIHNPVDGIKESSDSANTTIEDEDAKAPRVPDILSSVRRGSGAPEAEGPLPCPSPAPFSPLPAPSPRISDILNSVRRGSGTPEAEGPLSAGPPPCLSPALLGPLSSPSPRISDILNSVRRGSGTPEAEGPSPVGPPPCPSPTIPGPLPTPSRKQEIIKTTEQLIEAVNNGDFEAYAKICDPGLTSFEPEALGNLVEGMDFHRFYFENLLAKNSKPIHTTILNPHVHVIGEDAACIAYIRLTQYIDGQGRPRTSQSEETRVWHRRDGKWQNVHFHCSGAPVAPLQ
Chain of Phosphatidylinositol 4,5-bisphosphate 3-kinase catalytic subunit gamma isoform (Homo sapiens) (P48736 whole entry, looked up, the tested form may be a part, canonical isoform): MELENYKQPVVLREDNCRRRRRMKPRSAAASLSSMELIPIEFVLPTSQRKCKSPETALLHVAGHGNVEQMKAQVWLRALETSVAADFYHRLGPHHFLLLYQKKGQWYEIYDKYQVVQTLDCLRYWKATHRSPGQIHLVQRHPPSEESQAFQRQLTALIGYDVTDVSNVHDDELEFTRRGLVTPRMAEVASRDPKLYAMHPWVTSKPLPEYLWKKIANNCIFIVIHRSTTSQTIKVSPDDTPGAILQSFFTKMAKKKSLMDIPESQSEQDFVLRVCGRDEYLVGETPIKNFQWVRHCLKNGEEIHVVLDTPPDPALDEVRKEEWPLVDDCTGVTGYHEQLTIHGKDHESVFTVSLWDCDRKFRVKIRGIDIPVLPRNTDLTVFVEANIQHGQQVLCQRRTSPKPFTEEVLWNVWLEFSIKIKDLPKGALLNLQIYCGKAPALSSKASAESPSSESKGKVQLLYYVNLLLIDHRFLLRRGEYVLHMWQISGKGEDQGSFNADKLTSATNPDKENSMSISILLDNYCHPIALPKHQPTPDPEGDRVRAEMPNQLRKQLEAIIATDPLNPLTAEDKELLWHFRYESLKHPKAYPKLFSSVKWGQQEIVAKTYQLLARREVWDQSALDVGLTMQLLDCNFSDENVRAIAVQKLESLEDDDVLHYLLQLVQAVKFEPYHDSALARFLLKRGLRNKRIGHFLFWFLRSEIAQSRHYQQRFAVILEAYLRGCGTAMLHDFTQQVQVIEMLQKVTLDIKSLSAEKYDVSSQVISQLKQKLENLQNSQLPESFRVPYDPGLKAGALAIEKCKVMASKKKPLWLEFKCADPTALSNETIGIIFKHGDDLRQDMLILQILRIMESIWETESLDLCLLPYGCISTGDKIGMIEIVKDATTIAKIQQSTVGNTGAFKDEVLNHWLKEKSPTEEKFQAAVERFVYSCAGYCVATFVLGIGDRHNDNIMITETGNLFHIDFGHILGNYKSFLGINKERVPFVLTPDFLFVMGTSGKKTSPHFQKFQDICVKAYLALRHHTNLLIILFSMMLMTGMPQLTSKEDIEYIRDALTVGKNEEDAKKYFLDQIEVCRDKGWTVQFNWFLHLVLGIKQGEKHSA
Chain of Serine/threonine-protein kinase 25 (Homo sapiens) (O00506 whole entry, looked up, the tested form may be a part): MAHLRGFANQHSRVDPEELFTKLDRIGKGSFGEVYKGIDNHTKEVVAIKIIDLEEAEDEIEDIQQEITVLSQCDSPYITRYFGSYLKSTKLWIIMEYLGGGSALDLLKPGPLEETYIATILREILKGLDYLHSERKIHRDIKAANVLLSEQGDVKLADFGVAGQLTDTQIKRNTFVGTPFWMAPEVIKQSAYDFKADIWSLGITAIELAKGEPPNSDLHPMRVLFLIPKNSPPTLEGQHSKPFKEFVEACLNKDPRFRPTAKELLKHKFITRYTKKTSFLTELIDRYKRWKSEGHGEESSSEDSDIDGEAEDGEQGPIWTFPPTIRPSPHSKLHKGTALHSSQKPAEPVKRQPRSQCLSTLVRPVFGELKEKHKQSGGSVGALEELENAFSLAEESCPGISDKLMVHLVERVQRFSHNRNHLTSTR

## CC(C)Nc1sc(C(=O)c2ccc(Cl)s2)c(N)c1C#N
[1]
  Activity: 96%
[2]
  Activity: 100%
[3]
  Activity: 56%
[4]
  Activity: 60%
[5]
  Activity: 75%
[6]
  Activity: 65%
[7]
  Activity: 88%
[8]
  Activity: 70%
[9]
  Activity: 72%
[10]
  Activity: 93%
[11]
  Activity: 100%
[12]
  Activity: 83%
[13]
  Activity: 98%
[14]
  Activity: 100%
[15]
  Activity: 100%
[16]
  Activity: 87%
[17]
  Activity: 79%
[18]
  Activity: 100%
[19]
  Activity: 100%
[20]
  Activity: 73%
[21]
  Activity: 100%
[22]
  Activity: 81%
[23]
  Activity: 100%
[24]
  Activity: 97%
